Earlier results on 1 compound are cited in US20200338153A1, “ANAEROBIC ANTIOXIDANT COMPOSITION” (priority 2019, published 2020).

For this data set the following is noted: in vivo.

Turning to `CC(=O)N[C@@H](CS)C(=O)O` [NAC, N-acetylcysteine], the “fraction renally excreted by the body” value is 30%.
